Test results as given in patent US20120157401A1, “METHODS FOR TREATING NEUROFIBROMATOSIS” (PTC Therapeutics, Inc., priority 2009, published 2012).
Read-outs that look alike come from different tables or passages of the source. Marks after values point to notes of the source that are not given here.

Tests used:
HT1080 cells = test: Cell cycle analysis by propidium iodide flow cytometry in HT1080 cells (percent cells in S-phase, Table 24); assay type: cell-based, human; conditions: for % Cells In S-Phase: HT1080 cells, 100 nM, 18 hours, normoxic, DMSO control […]
Method: Experimental Design. […] After treatment, cells were trypsinized, and stained with propidium iodide (PI) dye to measure DNA content of individual cells by flow cytometry. Output comprised histograms showing relative DNA content in 10,000 cells.
While compounds which cause greater than 20% of the cells to accumulate in S-phase at 100 nM are considered active, a larger percentage of cells may be accumulated in S-phase at lower doses depending on the Compound, as shown in FIG. 12 for example.

T47D xenografts = test: T47D estrogen-sensitive breast cancer xenograft: tumor growth; conditions: 10 mg/kg oral QD
Method: Experimental Design. Estrogen pellets (0.72 mg/pellet) were implanted 30 days prior to cell implantation and again 60 days later. T47D estrogen-sensitive breast cancer cells (5×10^6 cells/mouse mixed 1:1 with […] ™) were implanted subcutaneously in female athymic nude mice. […] Tamoxifen was included as a positive control.
Tumor size was measured by calipers at periodic intervals. After 74 days of treatment, the mice were sacrificed.

[1] = system: HT1080 tumor cells in vivo; test: HT1080 xenograft studies of Compound 1205, Compound #10 and Compound 1330: tumor growth; design: species or system athymic nude mice
Description: Experimental Design. HT1080 cells (5×10^6 cells/mouse) were implanted subcutaneously in male athymic nude mice. […] For comparison, Compound #10 was included in this study.

[2] = system: hypoxia-inducible endogenous VEGF expression; test: Hypoxia-inducible endogenous VEGF expression ELISA in HeLa cells, dose-response EC50 (Table 3); assay type: cell-based, human; conditions: Homo sapiens
Method in brief: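 HeLa cells kept 24-48 h under hypoxia (1% O2, 5% CO2, nitrogen balance) with or without compound, e.g. seven concentrations; secreted VEGF in conditioned medium quantified by ELISA against a standard curve. Parallel Cell Titer Glo viability under identical conditions excludes cytotoxicity.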

[3] = system: human VEGF121 and VEGF165; test: HT1080 xenograft studies #21/#23: intra-tumor and pathologic plasma human VEGF (Compound 1205); assay type: in vivo; conditions: for Mean difference in human plasma VEGF (%) on Day 14 / Mean difference in human tumor VEGF (%) at Day 14: 14 days
Description: Experimental Design. HT1080 cells (5×10^6 cells/mice) were implanted subcutaneously into male athymic nude mice. Treatment with vehicle alone or Compound 1205 was initiated when the median tumor volume was approximately 311±88 mm^3. Table 7 and Table 9 (study design #21 and #23) provide the study design for assessing tumor and plasma pathologic VEGF concentrations—each group in each study included eight (8) mice. When the tumors in vehicle-treated mice had reached the target size of ˜1200 mm^3 for study #21 and ˜1500 mm^3 for study #23, all mice in the study were sacrificed, and excised tumors were homogenized in buffer containing protease inhibitors. Both intra-tumor and pathologic plasma human VEGF levels were measured using an ELISA that recognizes human VEGF121 and VEGF165. Intra-tumor VEGF levels were normalized to the total tumor protein concentration and pathologic plasma VEGF levels were expressed in pg/mL. Because smaller tumors produce less VEGF per mg of tumor protein, intra-tumor VEGF levels were normalized to tumor size.

[4] = system: soluble VEGF121 and VEGF165 isoforms; test: VEGF inhibition EC50 by ELISA in the same human tumor cell lines (Table 25); assay type: cell-based; conditions: tumor cells; data not shown
Method: Results. […] The conditioned media were collected and assayed by ELISA for soluble VEGF121 and VEGF165 isoforms (as described in Section 9.1.1.1); results were calculated as percentage inhibition relative to vehicle treated controls. EC50 values were calculated from the concentration response curves.

[5] = HeLa cells, hypoxic conditions (1% O2), 24-48 hours, VEGF in conditioned media, read-out: ELISA EC50
[6] = HeLa cells, hypoxic conditions (1% O2), VEGF ELISA of conditioned media, read-out: ELISA EC50

## O=C(Oc1ccc(Cl)cc1)N1CCc2c([nH]c3ccc(Cl)cc23)[C@H]1c1ccc(OCC[C@H](O)CO)cc1 [drawing 538]
HT1080 cells
  % Cells In S-Phase: 17%

## CC/C(=C(\c1ccccc1)c1ccc(OCCN(C)C)cc1)c1ccccc1 [Tamoxifen, tamoxifen, reference compound]
T47D xenografts
  Mean % Inhibition of Tumor Size vs Vehicle at Day 74: 50%

## O=C(Oc1ccc(Cl)cc1)N1CCc2c([nH]c3ccc(Cl)cc23)[C@@H]1c1ccc(OCC[C@H](O)CO)cc1 [Compound 1205]
[1]; HT1080 xenografts, QD
  Lowest dose at which active on tumor growth: 0.3 mg/kg
[1]; Study 21, 0.5 mg/kg QD, Day 14
  Mean difference in tumor growth rate at the Day that the vehicle-treated tumors taken off study: 61%**
[1]; Study 21, 0.5 mg/kg QD, PD, 14 days
  Final mean terminal tumor size in treatment group: 580 mm^3
[1]; Study 21, 3 mg/kg QD, Day 14
  Mean difference in tumor growth rate at the Day that the vehicle-treated tumors taken off study: 80%**
[1]; Study 21, 3 mg/kg QD, PD, 14 days
  Final mean terminal tumor size in treatment group: 379 mm^3
[1]; Study 22, 0.5 mg/kg QD
  Difference vs. vehicle in median number of days to reach 1000 mm^3: 11 days
[1]; Study 22, 0.5 mg/kg QD, Day 11
  Mean difference in tumor growth rate at the Day that the vehicle-treated tumors taken off study: 62%**
[1]; Study 22, 0.5 mg/kg QD, Xeno
  Final mean terminal tumor size in treatment group: 1750 mm^3
[1]; Study 22, 3 mg/kg QD
  Difference vs. vehicle in median number of days to reach 1000 mm^3: 14** Days
[1]; Study 22, 3 mg/kg QD, Day 11
  Mean difference in tumor growth rate at the Day that the vehicle-treated tumors taken off study: 75%**
[1]; Study 22, 3 mg/kg QD, Xeno
  Final mean terminal tumor size in treatment group: 1840 mm^3
[1]; Study 23, 1 mg/kg QD, Day 14
  Mean difference in tumor growth rate at the Day that the vehicle-treated tumors taken off study: 59%**
[1]; Study 23, 1 mg/kg QD, PD, 14 days
  Final mean terminal tumor size in treatment group: 710 mm^3
[1]; Study 24a, 10 mg/kg QD
  Difference vs. vehicle in median number of days to reach 1000 mm^3: 14** Days
[1]; Study 24a, 10 mg/kg QD, Day 11
  Mean difference in tumor growth rate at the Day that the vehicle-treated tumors taken off study: 76%**
[1]; Study 24a, 10 mg/kg QD, Xeno
  Final mean terminal tumor size in treatment group: 1400 mm^3
[1]; Study 24b, 0.3 mg/kg QD
  Difference vs. vehicle in median number of days to reach 1000 mm^3: 0.7 days
[1]; Study 24b, 0.3 mg/kg QD, Day 15
  Mean difference in tumor growth rate at the Day that the vehicle-treated tumors taken off study: 28%
[1]; Study 24b, 0.3 mg/kg QD, Xeno
  Final mean terminal tumor size in treatment group: 1540 mm^3
[2]; [5]
  EC50: < 0.008 µM
[3]; 0.5 or 3 mg/kg QD
  Inhibition of pathologic plasma human VEGF levels: more than 95%
  Inhibition of tumor human VEGF levels: more than 95%
[3]; Study #21, 0.5 mg/kg QD
  Mean difference in human plasma VEGF (%) on Day 14: 97%**
  Mean difference in human tumor VEGF (%) at Day 14: 95%**
[3]; Study #21, 3 mg/kg QD
  Mean difference in human plasma VEGF (%) on Day 14: 99%
  Mean difference in human tumor VEGF (%) at Day 14: 98%**
[3]; Study #23, 1 mg/kg QD
  Mean difference in human plasma VEGF (%) on Day 14: 100%**
  Mean difference in human tumor VEGF (%) at Day 14: 95** %

## O=C(Oc1ccc(Cl)cc1)N1CCc2c([nH]c3ccc(Cl)cc23)[C@@H]1c1ccc(OCC[C@H](O)CO)cc1 [drawing 529]
HT1080 cells
  % Cells In S-Phase: 20.0%

## O=C(Oc1ccc(F)cc1)N1CCc2c([nH]c3ccc(Cl)cc23)[C@@H]1c1ccc(OCCCn2ccnn2)cc1
HT1080 cells
  % Cells In S-Phase: 25.7%

## COc1ccc(C2c3[nH]c4ccc(Cl)cc4c3CCN2C(=O)Oc2ccc(Cl)cc2)cc1 (centres unmarked)
HT1080 cells
  % Cells In S-Phase: 15.3%

## O=C(Oc1ccc(F)cc1)N1CCc2c([nH]c3ccc(Cl)cc23)[C@H]1c1ccc(OCCCn2ccnn2)cc1
HT1080 cells
  % Cells In S-Phase: 16.4%

## C=CCOc1ccc([C@@H]2c3[nH]c4ccc(Cl)cc4c3CCN2C(=O)Oc2ccc(Cl)cc2)cc1
HT1080 cells
  % Cells In S-Phase: 17.9%

## O=C(Oc1ccc(Cl)cc1)N1CCc2c([nH]c3ccc(Cl)cc23)C1c1ccc(OCCN2CCOCC2)cc1 (centres unmarked) [drawing 535]
HT1080 cells
  % Cells In S-Phase: 16.4%

## C=CCOc1ccc([C@H]2c3[nH]c4ccc(Cl)cc4c3CCN2C(=O)Oc2ccc(Cl)cc2)cc1 [drawing 533]
HT1080 cells
  % Cells In S-Phase: 17.2%

## O=C(Oc1ccc(F)cc1)N1CCc2c([nH]c3ccc(Cl)cc23)[C@@H]1c1ccc(OCC[C@H](O)CO)cc1 [drawing 537]
HT1080 cells
  % Cells In S-Phase: 20.6%

## COc1ccc(OC(=O)N2CCc3c([nH]c4ccc(Br)cc34)[C@@H]2c2ccc(Cl)cc2)cc1 [drawing 527]
HT1080 cells
  % Cells In S-Phase: 26.4%

## O=C(Oc1ccc(Cl)cc1)N1CCc2c([nH]c3ccc(Cl)cc23)C1c1ccc(OCCN2CCCCC2)cc1 (centres unmarked)
HT1080 cells
  % Cells In S-Phase: 16.8%

## NC(Cn1ccc(=O)c(O)c1)C(=O)O (centres unmarked) [mimosine, reference compound]
[4]
  Effect on VEGF production: does not delay or prolong the cell cycle or reduce VEGF production
HT1080 cells; tumor cells, data not shown
  Effect on the cell cycle: does not delay or prolong the cell cycle

## COc1ccc([C@@H]2c3[nH]c4ccc(Cl)cc4c3CCN2C(=O)Oc2ccc(Cl)cc2)cc1
HT1080 cells
  % Cells In S-Phase: 16.8%

## COc1ccc([C@H]2c3[nH]c4ccc(Cl)cc4c3CCN2C(=O)Oc2ccc(Cl)cc2)cc1 [drawing 526]
HT1080 cells
  % Cells In S-Phase: 26.1%

## COc1ccc(OC(=O)N2CCc3c([nH]c4ccc(Br)cc34)[C@H]2c2ccc(Cl)cc2)cc1
HT1080 cells
  % Cells In S-Phase: 16.5%

## O=C(Oc1ccc(F)cc1)N1CCc2c([nH]c3ccc(Cl)cc23)C1c1ccc(OCCCCn2cncn2)cc1 (centres unmarked) [Compound 743]
[2]; [5]
  EC50: < 0.008 µM

## COc1ccc(OC(=O)N2CCc3c([nH]c4ccc(Cl)cc34)[C@@H]2c2ccc(OCC[C@H](O)CO)cc2)cc1 [Compound 1300]
[2]; [5]
  EC50: < 0.008 µM

## COc1ccc(C2c3[nH]c4ccc(Cl)cc4c3CCN2C(=O)O[C@H]2C[C@@H](C)CC[C@@H]2C(C)C)cc1 (some centres unmarked) [Compound 192]
[2]; [5]
  EC50: 0.2 to 1 µM

## COc1cc(C2c3[nH]c4ccc(Cl)cc4c3CCN2C(=O)Oc2ccccc2)ccc1OCCCn1ccnn1 (centres unmarked) [Compound 1144]
[2]; [5]
  EC50: 0.04 to 0.2 µM

## N#CCOc1ccc(C2c3[nH]c4ccc(Cl)cc4c3CCN2C(=O)Oc2ccc(Cl)cc2)cc1 (centres unmarked) [Compound 1520]
[2]; [6]
  EC50: < 0.008 µM

## COCCOCCOc1ccc(C2c3[nH]c4ccc(Cl)cc4c3CCN2C(=O)Oc2ccc(Cl)cc2)cc1 (centres unmarked) [Compound 675]
[2]; [5]
  EC50: 0.008 to 0.04 µM

## COCCN(C)CCCOc1ccc(C2c3[nH]c4ccc(Cl)cc4c3CCN2C(=O)Oc2ccc(F)cc2)cc1 (centres unmarked) [Compound 992]
[2]; HeLa, read-out: ELISA EC50 μM
  EC50: 0.04 to 0.2 µM

## COc1ccc(OC(=O)N2CCc3c([nH]c4ccc(Cl)cc34)[C@@H]2c2ccc(OCC[C@@H](O)CO)cc2)cc1 [Compound 1361]
[2]; [6]
  EC50: 0.008 to 0.04 µM

## CC(=O)OCC1OC(n2cc(COc3ccc([C@H]4c5[nH]c6ccc(Cl)cc6c5CCN4C(=O)Oc4ccc(Cl)cc4)cc3)nn2)C(OC(C)=O)C(OC(C)=O)C1OC(C)=O (some centres unmarked) [Compound 1675]
[2]; [6]
  EC50: 0.04 to 0.2 µM

## C=CCOc1ccc(C2c3[nH]c4ccc(Cl)cc4c3CCN2C(=O)Oc2ccc(OC)cc2)cc1 (centres unmarked) [Compound 432]
[2]; [5]
  EC50: < 0.008 µM

## O=C(Oc1ccc(Cl)cc1)N1CCc2c([nH]c3ccc(Cl)cc23)C1c1ccc(OCCCn2ccnn2)cc1 (centres unmarked) [Compound 417]
[2]; [5]
  EC50: < 0.008 µM

## COc1ccc(OC(=O)N2CCc3c([nH]c4ccc(Cl)cc34)C2c2ccc(OCCCCl)cc2)cc1 (centres unmarked) [Compound 944]
[2]; [5]
  EC50: 0.008 to 0.04 µM

## O=C(NCC(O)CCOc1ccc([C@H]2c3[nH]c4ccc(Cl)cc4c3CCN2C(=O)Oc2ccc(Cl)cc2)cc1)c1cccnc1 (some centres unmarked) [Compound 1628]
[2]; [6]
  EC50: < 0.008 µM

## O=C(Oc1ccc(F)cc1)N1CCc2c([nH]c3ccc(Cl)cc23)C1c1ccc(OCCCCN2CCOCC2)cc1 (centres unmarked) [Compound 738]
[2]; HeLa, read-out: ELISA EC50 μM
  EC50: < 0.008 µM

## O=C(Oc1ccc(Cl)cc1)N1CCc2c([nH]c3ccc(Cl)cc23)[C@@H]1c1ccc(OCCCCl)cc1 [Compound 1128]
[2]; [5]
  EC50: < 0.008 µM

## CN1CCN(CCCCCCOc2ccc(C3c4[nH]c5ccc(Cl)cc5c4CCN3C(=O)Oc3ccc(Cl)cc3)cc2)CC1 (centres unmarked) [Compound 788]
[2]; HeLa, read-out: ELISA EC50 μM
  EC50: 0.008 to 0.04 µM

## O=C(Oc1ccc(Cl)cc1)N1CCc2c([nH]c3ccc(Cl)cc23)[C@@H]1c1ccc(OC2CCN(C[C@H](O)CO)CC2)cc1 [Compound 1704]
[2]; HeLa, read-out: ELISA EC50 μM
  EC50: 0.008 to 0.04 µM
